# Laboratory results as given in patent US20250223306A1, “TEAD INHIBITORS AND METHODS OF USE” (Sporos BioDiscovery, Inc., priority 2022, published 2025).
# Experiments:
# NCI-H28 cells = test: Proliferation, Cell Titer One assay; assay type: cell-based; conditions: 6 days
# Procedure: (§1) Cell proliferation of a TEAD dependent NF2-null mesothelioma cell line, NCI-H226, and a TEAD-non-dependent mesothelioma cell line, NCI-H28 was assayed using two different protocols: • a) CellTiter-Glo 2.0 (Promega #G9243). The effect of the TEAD inhibitors disclosed herein on cell proliferation was determined in TEAD1-genetically dependent cell line NCI-H226 (responder cell line) and TEAD-independent cell lines (NCI-H23, HEK293T), as non-responder, negative control. Cells were seeded in 96-well plates (Thermo Scientific #167008) in growth media (RPMI-1640, Gibco #61870-010) for NCI-H226 and NCI-H23 or DMEM (Gibco #31966-021, HEK293T) with 10% Heat Inactivated Fetal Bovine Serum (Gibco 10500-064) at 800 (NCI-H226 and HEK-293T) or 2000 (NCI-H23) cells per well at 37° C., 5% CO2, humidified incubator; 24 hours later, fresh growth media containing test compound or DMSO vehicle was added and incubated with the cells for 144 hrs. TEAD inhibitor stocks were made at a 1000× fold excess in DMSO, and a dose response test compound dose range of 10,000 to 0.1 nM was used. Each treatment was carried out in triplicate. After 144 hrs of treatment, relative cell viability numbers were determined using the CellTiter-Glo 2.0 assay following the manufacturer's instructions. Test plates and CellTiter-Glo 2.0 reagent were allowed to equilibrate to room temperature. CellTiter-Glo 2.0 reagent was added at 1:1 reagent to media ratio to the 96-well cell plates, plates were placed on a plate shaker for 2 minutes and then incubated at room temperature for a further 10 minutes to allow complete cell lysis to occur. The mix was then transferred to white, 96-well luminometer assay plates (Greiner Bio One #655075). Luminescence was quantified using a CLARIOStar Plus multi-mode plate reader (BMG Labtech) in luminescence detection mode with the recommended settings (ultra-Glo pre-set: emission 545-50 nm with autofocus and enhanced dynamic range on). Relative cell density was expressed as a function of inhibitor concentration, with respect to DMSO-only control wells. Data where plotted using GraphPad Prism and IC50 values for the biological effect were calculated using the EC50 non-linear fit function using a sigmoidal, 4-parameter logistic, least squares fit with no constraints. • b) Cell Titer One (Promega, #G3582). The effect of the TEAD inhibitors disclosed herein on cell proliferation was also determined using the Promega Substrate Cell Titer Aqueous One Solution Reagent. The TEAD inhibitors were evaluated for the effects on cell proliferation responder (H226) and non-responder negative control cancer cell lines (CAMA1, H28), as well as non-transformed normal human cells (HUVEC, NHDF). Dissociated cells were resuspend in media (depending on cell line, either in DMEM, RPMI, or EMEM all with 10% FBS, with gentamicin as an antibiotic). Cells were seeded at 100 μL/well at 750 cells per well in 96-well plates and allowed to settle and attach. After an incubation of 24 hrs (37° C., 5% CO2, humidified incubator), 100 μL of test compound-containing media was added. A dilution series of 2000× concentrated stock of test compounds was prepared in DMSO, for final concentrations from 0.1 to 10,000 nM. After addition of test compound-containing media, cells were incubated for 6 days at 37° C., 5% CO2, humidified incubators). To measure cell density, 20 μL of Promega Substrate Cell Titer 96 Aqueous One Solution Reagent (Promega, #G3582) to each well was added according to the manufacturer's instructions. Plates were incubated at 37° C. for usually 3-8 hrs, to reach in the control cells (without compound) an OD of 1.5 at 490 nm. The OD was measured using Vmax [Molecular Devices] spectrophotometer plate reader. Media only-wells were used as background controls and cell densities normalized to DMSO vehicle control. ECs were taken as the concentration achieving 50% of maximal growth inhibition.
# NCI-H226 cells = test: Proliferation, Cell Titer One assay; assay type: cell-based; conditions: 6 days
# Procedure: as §1
# NCI-H23 cells = test: Proliferation and cell viability, CellTiter-Glo 2.0 (CTG) assay; assay type: cell-based; conditions: 144 hrs
# [1] = test system: TEAD/YAP promoter element in MCF7-Luc cells; test: Cell-based TEAD-promoter transcriptional activity assay (MCF-7 TEAD luciferase); conditions: MCF-7 TEAD luciferase assay, 24 hrs
# Text: Luciferase based TEAD-transcriptional cell-based reporter assay: To measure the effect of the TEAD inhibitors disclosed herein on TEAD transcriptional activity in cell-based systems, we employed a stable MCF7 cell line expressing luciferase under a consensus synthetic TEAD/YAP promoter element (MCF7-Luc, BPS Bioscience, Catalog #60618). This MCF7-TEAD-Luc cell line has been extensively validated with both genetic and pharmacological intervention, showing inhibition of luciferase expression and luminescence in response to ablation of the TEAD/YAP pathway. MCF7-Luc cells were plated at 10,000 cells per well in white 384-well plates and settled by a quick spin. The media was MEM (Gibco) supplemented with 10% fetal bovine serum (ExCell), selenium-transferrin-insulin mix (Gibco), 1× non-essential amino acids (Gibco) and sodium pyruvate (Gibco). Cells were allowed to attach and grow overnight (37° C., 5% CO2 in humidified incubator), and test compounds were added the next day. Compounds were dissolved at 1000× fold excess in DMSO and made into 2-fold serial dilution, and added to media at 30 μL of media per well. A DMSO-only well serves a vehicle control. The highest concentration of drug in media was 1,000 nM. Positive control compounds include K975 (pan-TEAD inhibitor) and negative control (Actinomycin). Cells were incubated for 24 hrs with test compounds and positive controls, after which time, the luminescence was measured by the One-Glo luciferase kit (Promega). 30 μL of One-Glo reagent was added to each well and shaken for 8 minutes to lyse the cells. The plates were centrifugated at 1000 RPM for 1 minute to settle all liquid in the well and eliminate bubbles. Luminescence was quantified using an ENVision plate reader (Perkin Elmer). Percent inhibition of luminescence by test compound was expressed as a function of test compound concentration, with the no-test compound DMSO only wells serving as baseline. EC50 values for each compound were calculated with a non-linear asymptotic line fit.
# [2] = Homo sapiens, NCI-H23, H23-non-responder cell line
Structure (SMILES),"IC50 (NCI-H28 cells; Homo sapiens, NCI-H28, 144 h) [µM]","IC50 (NCI-H226 cells; Homo sapiens, NCI-H226, 144 h) [µM]",IC50 (NCI-H23 cells; [2]) [µM],"EC50 ([1]; Homo sapiens, MCF7) [µM]",IC50 (NCI-H28 cells) [µM],IC50 (NCI-H226 cells) [µM],IC50 (NCI-H23 cells; H23-non-responder cell line) [µM],EC50 [1] [µM]
"C[C@H](NC(=O)c1cnc2c(C3=CC[C@@H](C(F)(F)F)CC3)cccc2c1)c1ncco1 (single isomer, unassigned) [Compound 19, N-(1-(oxazol-2-yl)ethyl)-8-(4-(trifluoromethyl)cyclohex-1-en-1-yl)quinoline-3-carboxamide]",> 1,< 0.2,> 1,< 0.2,,,,
"C[C@H](NC(=O)c1cnc2c(C3=CC[C@@H](C(F)(F)F)CC3)cccc2c1)c1ncco1 (single isomer, unassigned) [Compound 20, N-(1-(oxazol-2-yl)ethyl)-8-(4-(trifluoromethyl)cyclohex-1-en-1-yl)quinoline-3-carboxamide]",,,,,> 1,< 0.2,> 1,< 0.2
"C[C@H](NC(=O)c1cnc2c(C3=CCC(C(F)(F)F)CC3)cccc2c1)c1ccccn1 (stereo partly drawn) [Compound 2, N—((S)-1-(pyridin-2-yl)ethyl)-8-(4-(trifluoromethyl)cyclohex-1-en-1-yl)quinoline-3-carboxamide]",> 1,< 0.2,> 1,< 0.2,,,,
"C[C@H](CO)NC(=O)c1cnc2c(C3=CCC(C(F)(F)F)CC3)cccc2c1 (stereo partly drawn) [Compound 7, N—((R)-1-hydroxypropan-2-yl)-8-(4-(trifluoromethyl)cyclohex-1-en-1-yl)quinoline-3-carboxamide]",> 1,< 0.2,> 1,,,,,
"O=C(NCc1ncco1)c1cnc2c(C3=CCC(C(F)(F)F)CC3)cccc2c1 (stereo not shown) [Compound 11, N-(oxazol-2-ylmethyl)-8-(4-(trifluoromethyl)cyclohex-1-en-1-yl)quinoline-3-carboxamide]",> 1,< 0.2,> 1,< 0.2,,,,
